The record followed here is PMC10254193, “Early Molecular Insights into Thanatin Analogues Binding to A. baumannii LptA” (Molecules, 2023).

The subject of one assay is E. coli ATCC 25922. It counts as cell-based. The source says:
Table 1 LptA sequence identity to E. coli and MIC values (µg/mL). | column: E. coli ATCC 25922

Assay [1] addresses LptAm(Ab)2.0. As to the kind of experiment: Fluorescence polarization competition (indirect) binding assay, displacement of than-FL. Further details: species or system A. baumannii. The following applies: competition FP, than-FL 10 µM, triplicate; for IC50: 1:1 LptAm(Ab)2.0 and than-FL, FP buffer pH 7, overnight 4 °C, read at 25 °C, read-out: IC50 ± 95CI; for Ki: from IC50 and KD of than-FL by Cheng–Prusoff equation, read-out: KI ± 95CI. As for the experimental part:
The dissociation constant (KD) of than-FL was first determined in a direct binding assay and measured as 3.7 ± 0.5 µM (Figure 5, left) (Table 3). Subsequently, competitive binding assays were performed to determine the inhibition constants (KIs) of the unlabeled thanatin derivatives 1, 2, 5, 6, and 7. For each thanatin derivative tested, a serial dilution was prepared in triplicate on a single 96-well plate, to which a 1:1 mixture of LptAm(Ab)2.0 and than-FL was added. […] Determination of the KIs was achieved from the empirically derived IC50 values and KD of than-FL using the Cheng–Prusoff equation [27].
Protein stocks were purified and concentrated in SEC buffer (50 mM NaPi pH 7, 150 mM NaCl), and if necessary diluted to the desired concentration using FP buffer (50 mM NaPi pH 7, 150 mM NaCl, 0.05% Tween20). Peptide stocks and fluorescently labeled peptide stocks were made in FP buffer. A 1:1 serial dilution of 24 wells was prepared first by adding 100 µL of the unlabeled protein (e.g., LptAm(Ab)2.0) or peptide (e.g., 1, 2, 5–7), starting at high concentrations, 100–500 µM, in well one. Then, 50 µL was taken from the first well and added to 50 µL of FP buffer in the subsequent well, homogenized and repeated for the remaining of the 24-well series. Then, 50 µL of 2x stock of the fluorescently labeled thanatin (than-FL) was added to the dilution series. For the direct binding assays, 10 µM than-FL was used as the 2x stock, and for the indirect binding assays, a 1:1 mixture of 20 µM Lpt protein variant and 20 µM than-FL was used as the 2x stock; the final working concentrations of the than-FL were 5 µM and 10 µM, respectively. Plates were left to incubate overnight at 4 °C before fluorescence polarization (FP) measurements. Anisotropy was measured using the Tecan Safire^2 plate reader using a 10 nm bandwidth and setting the excitation and emission wavelengths to 635 nm and 670 nm, respectively. The G-factor (G) was also determined empirically as 1.094 for the instrument and included in all the anisotropy calculations.
For the indirect binding assays, r was calculated in the same manner as the direct binding assays. To control for non-specific binding between than-FL and competitors, than-FL alone was added to a replicate dilution series of the unlabeled peptide on the same plate. The control was subtracted from r to yield r’. Data were fit to a sigmoidal interpolation model on GraphPad Prism 9, and an IC50 was generated for each unlabeled peptide or protein measured. The inhibition constants (Kis) were calculated using the Cheng–Prusoff equation, Ki=IC50×1+LT/KD^−1 , in which the total concentration of than-FL (LT) was used as well as the KD previously derived from the peptide’s cognate direct binding assay.

For another assay, the system named is K. pneumoniae ATCC 43816. It counts as cell-based. An excerpt:
Table 1 LptA sequence identity to E. coli and MIC values (µg/mL). | column: K. pneumoniae ATCC 43816

A further assay deals with P. aeruginosa ATCC 27853. It counts as cell-based. The source says: Table 1 LptA sequence identity to E. coli and MIC values (µg/mL). | column: P. aeruginosa ATCC 27853
The test system of another assay is A. baumannii DSM 30008. It counts as cell-based. The source says: Table 1 LptA sequence identity to E. coli and MIC values (µg/mL). | column: A. baumannii DSM 30008
Assay [2] concerns the target LptAm(Ab)2.0. The assay is described as follows: Fluorescence polarization direct binding assay. Further details: species or system A. baumannii. The following applies: direct FP, than-FL 5 µM, LptAm(Ab)2.0 serial dilution, FP buffer 50 mM NaPi pH 7, 150 mM NaCl, 0.05% Tween20, overnight 4 °C, read at 25 °C, triplicate; read-out: KD ± 95CI. An excerpt: As previously mentioned, a second A. baumannii LptA protein construct (LptAm(Ab)2.0), truncated at G159 of the C-terminus had improved monomeric behavior in solution and was used for binding affinity assays. The protein underwent routine checks for purity via a Coomassie-stained SDS-PAGE (Figure S1), and its binding to 7 in a titration series was observed using analytical SEC (Figure 2B), before proceeding with fluorescence polarization (FP). The fluorescent label, Alexa647, was conjugated to thanatin at the first position, as described in [24]. […]
Protein stocks were purified and concentrated in SEC buffer (50 mM NaPi pH 7, 150 mM NaCl), and if necessary diluted to the desired concentration using FP buffer (50 mM NaPi pH 7, 150 mM NaCl, 0.05% Tween20). […] Plates were left to incubate overnight at 4 °C before fluorescence polarization (FP) measurements. Anisotropy was measured using the Tecan Safire^2 plate reader using a 10 nm bandwidth and setting the excitation and emission wavelengths to 635 nm and 670 nm, respectively. The G-factor (G) was also determined empirically as 1.094 for the instrument and included in all the anisotropy calculations.
For direct binding assays, fluorescence anisotropy (r) was calculated using the parallel and perpendicular polarized intensities using the equation r=I∥−I⊥∗G/I∥+2I⊥∗G . […]

For assay [3], the target named is T1, A. baumannii LptAm2.0 (LptAm(Ab)2.0) (A. baumannii ATCC 17978, UniProt V5VEZ9 33-159).
T1 construct: LptA of A. baumannii ATCC 17978, L33 to G159: as LptAm(Ab)1.0 with a further 5-residue truncation at the C-terminus; source: E. coli BL21(DE3), purified (two-step NiNTA with TEV cleavage); not shown: GB1 (protein G B1 domain), N-terminal, cleaved; His tag, N-terminal, cleaved
T1 sequence: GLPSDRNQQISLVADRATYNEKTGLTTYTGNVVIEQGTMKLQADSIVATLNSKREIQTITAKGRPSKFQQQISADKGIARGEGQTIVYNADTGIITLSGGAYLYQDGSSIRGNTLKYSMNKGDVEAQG
As to the kind of experiment: fluorescence polarisation; competition: unlabeled peptide serially diluted, 1:1 mixture of LptAm(Ab)2.0 and than-FL added (than-FL 10 µM final); 50 mM NaPi pH 7, 150 mM NaCl, 0.05% Tween20; KI from IC50 by the Cheng-Prusoff equation. Particulars: both partners purified.

Assay [4] addresses than-FL (fluorescently labeled thanatin, Alexa647). As to the kind of experiment: fluorescence polarisation; direct binding: LptAm(Ab)2.0 serially diluted, than-FL 5 µM; 50 mM NaPi pH 7, 150 mM NaCl, 0.05% Tween20; incubated overnight at 4 °C, executed at ambient temperature (25 °C); One site - Total fit.

Converted amounts (≈) assume the structure as drawn. Bridge positions count the residues as written; N and C are the ends. Square brackets hold non-standard residues; d marks the D form. Peptide text beside a SMILES is read from it. Hyp = O=C(O)[C@@H]1C[C@@H](O)CN1; Pen = CC(C)(S)[C@H](N)C(=O)O; dDab = NCC[C@@H](N)C(=O)O; Nle = CCCC[C@H](N)C(=O)O; Dab = NCC[C@H](N)C(=O)O

For the molecule `CC[C@H](C)[C@H](NC(=O)[C@@H]1C[C@@H](O)CN1C(=O)[C@@H](N)C(C)C)C(=O)N[C@H](C(=O)N[C@@H](Cc1ccc(O)cc1)C(=O)N[C@@H]1C(=O)N[C@@H](CC(N)=O)C(=O)N[C@@H](CCCNC(=N)N)C(=O)N[C@@H](CCN)C(=O)N[C@@H]([C@@H](C)O)C(=O)N[C@H](CCN)C(=O)N[C@@H](CCCCN)C(=O)N[C@H](C(=O)N[C@@H](CCN)C(=O)N[C@@H](CCCNC(=N)N)C(=O)N[C@@H](Cc2ccc(O)cc2)C(=O)O)CSSC1(C)C)[C@@H](C)O` [Peptide 6] (H-V[Hyp]ITY[Pen]NR[Dab]T[dDab]KC[Dab]RY-OH; disulfide 6-13; N-terminus and C-terminus assumed), the MIC in the assay on E. coli ATCC 25922 is listed as 0.125 µg/mL (≈ 0.0638 µM); in the assay with K. pneumoniae ATCC 43816, 0.250 µg/mL (≈ 0.128 µM); against P. aeruginosa ATCC 27853, above 32 µg/mL; against A. baumannii DSM 30008 it was above 32 µg/mL. The IC50 on LptAm(Ab)2.0 [1] was determined as 15.4 ± 1.3 µM. For the same molecule, the Ki at LptAm(Ab)2.0 [1] is 4.1 ± 0.4 µM.
As for “Than-FL: fluorescently labeled thanatin, Alexa647 conjugated at the first position; reporter in all FP assays”, the Kd at LptAm(Ab)2.0 [2] was 3.7 ± 0.5 µM.
Turning to `CC[C@H](C)[C@H](NC(=O)[C@@H](NC(=O)[C@@H]1C[C@@H](O)CN1C(=O)[C@@H](N)C(C)C)[C@@H](C)CC)C(=O)N[C@@H](Cc1ccc(O)cc1)C(=O)N[C@@H]1C(=O)N[C@@H](CC(N)=O)C(=O)N[C@@H](CCCNC(=N)N)C(=O)N[C@@H](CCN)C(=O)N[C@@H]([C@@H](C)O)C(=O)N[C@H](CCN)C(=O)N[C@@H](CCCCN)C(=O)N[C@H](C(=O)N[C@@H](CCN)C(=O)N[C@@H](CCN)C(=O)N[C@@H](Cc2ccc(O)cc2)C(=O)O)CSSC1(C)C` [Peptide 5] (H-V[Hyp]IIY[Pen]NR[Dab]T[dDab]KC[Dab][Dab]Y-OH; disulfide 6-13; N-terminus and C-terminus assumed), the MIC in the assay on E. coli ATCC 25922 was 0.063 µg/mL (≈ 0.0329 µM); against K. pneumoniae ATCC 43816, 0.250 µg/mL (≈ 0.131 µM); against P. aeruginosa ATCC 27853, above 32 µg/mL; against A. baumannii DSM 30008, above 32 µg/mL. For the same molecule, the IC50 at LptAm(Ab)2.0 [1] was found to be 11.5 ± 0.7 µM. Besides, the Ki on LptAm(Ab)2.0 [1] was determined as 3.1 ± 0.2 µM.
As for `CC[C@H](C)[C@H](NC(=O)[C@@H](NC(=O)[C@@H]1CCCN1C(=O)[C@@H](NC(=O)[C@@H]1CCCN1C(=O)[C@H](CCCCN)NC(=O)[C@@H](N)CCCCN)C(C)C)[C@@H](C)CC)C(=O)N[C@@H](Cc1ccc(O)cc1)C(=O)N[C@@H]1C(=O)N[C@@H](CC(N)=O)C(=O)N[C@@H](CCCNC(=N)N)C(=O)N[C@@H](CCN)C(=O)N[C@@H]([C@@H](C)O)C(=O)N[C@H](CCN)C(=O)N[C@@H](CCCCN)C(=O)N[C@H](C(=O)N[C@@H](CCN)C(=O)N[C@@H](CCCNC(=N)N)C(=O)N[C@@H](Cc2ccc(O)cc2)C(=O)O)CSSC1(C)C` [Peptide 2] (H-KKPVPIIY[Pen]NR[Dab]T[dDab]KC[Dab]RY-OH; disulfide 9-16; N-terminus and C-terminus assumed), the MIC with E. coli ATCC 25922 is recorded as 0.031 µg/mL (≈ 0.0134 µM); in the assay with K. pneumoniae ATCC 43816 it was 0.125 µg/mL (≈ 0.0541 µM); against P. aeruginosa ATCC 27853, above 32 µg/mL; against A. baumannii DSM 30008, above 32 µg/mL. Further, the IC50 at LptAm(Ab)2.0 [1] came out at 24.1 ± 6.3 µM. The Ki at LptAm(Ab)2.0 [1] amounted to 6.5 ± 1.7 µM.
For `CCCC[C@H](NC(=O)[C@H](CCCNC(=N)N)NC(=O)[C@H](CCN)NC(=O)[C@@H]1CSSC[C@H](NC(=O)[C@H](Cc2ccc(O)cc2)NC(=O)[C@@H](NC(=O)[C@@H](NC(=O)[C@@H]2CCCN2C(=O)[C@@H](NC(=O)[C@@H]2CCCN2C(=O)[C@H](CCCCN)NC(=O)[C@@H](N)CCCCN)C(C)C)[C@@H](C)CC)[C@@H](C)CC)C(=O)N[C@@H](CC(N)=O)C(=O)N[C@@H](CCCNC(=N)N)C(=O)N[C@@H](CCCNC(=N)N)C(=O)N[C@@H]([C@@H](C)O)C(=O)NCC(=O)N[C@@H](CCCCN)C(=O)N1)C(=O)O` [Peptide 1] (H-KKPVPIIYCNRRTGKC[Dab]R[Nle]-OH; disulfide 9-16), the MIC is given as 0.063 µg/mL (≈ 0.0281 µM) in the assay on E. coli ATCC 25922, 0.250 µg/mL (≈ 0.111 µM) in the assay with K. pneumoniae ATCC 43816, above 64 µg/mL against P. aeruginosa ATCC 27853 and above 32 µg/mL against A. baumannii DSM 30008.

B1: Thanatin (peptide)
peptide: GSKKPVPIIYCNRRTGKCQRM
notes: thanatin, the naturally occurring 21-mer; positions 1′-21′; also called native thanatin
For the molecule B1, in assay [3], the IC50 was determined as 11.8 µM and the Ki stood at 3.2 µM.

B2: A. baumannii LptAm2.0 (LptAm(Ab)2.0) (domain or fragment)
chain: T1 sequence
In assay [4], B2 had a Kd of 3.7 µM.
